Results published in US10457667B2, “Indolin-2-one derivatives” (Hoffmann-La Roche Inc., priority 2015, dated 2019).

target: T1, mouse ENT-1 transporter (Mus musculus, UniProt Q9JIM1); experiment: ENT1 adenosine uptake inhibition ([3H]-adenosine transport activity); format: cell-based; settings: stable cells expressing mouse ENT-1; [2,8-3H]-adenosine 6 nM, 20 min
T1 construct: expressed in transfected cells
T1 sequence (Q9JIM1 1-460): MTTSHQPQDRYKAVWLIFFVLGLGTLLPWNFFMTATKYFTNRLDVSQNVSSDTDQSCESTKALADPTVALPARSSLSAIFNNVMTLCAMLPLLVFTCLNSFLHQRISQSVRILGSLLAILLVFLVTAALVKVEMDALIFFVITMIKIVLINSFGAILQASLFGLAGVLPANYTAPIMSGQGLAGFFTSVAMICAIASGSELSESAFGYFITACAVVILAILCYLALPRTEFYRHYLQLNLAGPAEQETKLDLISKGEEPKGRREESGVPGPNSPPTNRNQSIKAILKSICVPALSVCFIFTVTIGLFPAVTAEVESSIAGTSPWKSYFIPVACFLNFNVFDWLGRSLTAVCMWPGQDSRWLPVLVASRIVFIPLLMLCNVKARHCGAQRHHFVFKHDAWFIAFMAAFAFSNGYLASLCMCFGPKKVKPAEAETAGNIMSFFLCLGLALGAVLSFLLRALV
Description: To measure adenosine transport activity of ENT-1 mammalian cells, stable cells expressing the mouse ENT-1 transporter were plated on day 1 in 96-well culture plates at the density of 60,000 cells/well, in complete DMEM/F12 medium supplemented with glutamax, 10% FBS and 10 μg/ml puromycin. On day 2, the medium was aspirated and the cells were washed twice with uptake buffer (10 mM Hepes-Tris, pH 7.4 containing 150 mM NaCl, 1 mM CaCl2, 2.5 mM KCl, 2.5 mM MgSO4, 10 mM D-glucose) (UB). For inhibition experiments, cells were then incubated at RT with various concentrations of compounds with 1% DMSO final. Non-specific uptake was defined in the presence of 10 μM S-(4-Nitrobenzyl)-6-thioinosine (NBTI, Sigma Cat #N2255).
A solution containing [2,8-^3H]-adenosine 6 nM (40 Ci/mmol, American Radiolabeled chemicals Inc, Cat #ART 0287A) was then immediately added to the wells. The plates were then incubated for 20 min with gentle shaking and the reaction was stopped by aspiration of the mixture and washing (three times) with ice-cold UB. The cells were lysed by the addition of scintillation liquid, shaken 3 hours and the radioactivity in the cells was estimated using a microplates scintillation counter (TopCount NXT, Packard).

Structure (SMILES)	IC50
COc1cc(N2C(=O)C(C)(C)c3ccc(-c4cnc(C)nc4)cc32)cnc1C1CC1 [Example 10, 1-(6-Cyclopropyl-5-methoxypyridin-3-yl)-3,3-dimethyl-6-(2-methylpyrimidin-5-yl)indolin-2-one]	139 nM
Cc1ncc(-c2ccc3c(c2)N(c2cncc(OC(C)C)c2)C(=O)C3(C)C)cn1 [Example 7, 1-(5-Isopropoxypyridin-3-yl)-3,3-dimethyl-6-(2-methylpyrimidin-5-yl)indolin-2-one]	183 nM
CCOc1cncc(N2C(=O)C(C)(C)c3ccc(-c4cnc(C)nc4)cc32)c1 [Example 5, 1-(5-Ethoxypyridin-3-yl)-3,3-dimethyl-6-(2-methylpyrimidin-5-yl)indolin-2-one]	64.3 nM
COc1ncc(N2C(=O)C(C)(C)c3ccc(-c4cnc(C)nc4)cc32)cn1 [Example 15, 1-(2-Methoxypyrimidin-5-yl)-3,3-dimethyl-6-(2-methylpyrimidin-5-yl)indolin-2-one]	843 nM
COc1cccc(N2C(=O)C(C)(C)c3ccc(-c4cnc(C)nc4)cc32)c1 [Example 6, 1-(3-Methoxyphenyl)-3,3-dimethyl-6-(2-methylpyrimidin-5-yl)indolin-2-one]	289 nM
Cc1ncc(-c2ccc3c(c2)N(c2ccc(OC(F)(F)F)cn2)C(=O)C3(C)C)cn1 [Example 14, 3,3-Dimethyl-6-(2-methylpyrimidin-5-yl)-1-(5-(trifluoromethoxy)pyridin-2-yl)indolin-2-one]	118 nM
COc1cncc(N2C(=O)C(C)(C)c3ccc(-c4cnc(C)nc4)cc32)n1 [Example 1, 1-(6-Methoxypyrazin-2-yl)-3,3-dimethyl-6-(2-methylpyrimidin-5-yl)indolin-2-one]	73 nM
COc1ccc(N2C(=O)C3(CCC3)c3ccc(-c4cnc(C)nc4)cc32)nn1 [Example 20, 1′-(6-Methoxypyridazin-3-yl)-6′-(2-methylpyrimidin-5-yl)spiro[cyclobutane-1,3′-indolin]-2′-one]	130 nM
COc1cc(N2C(=O)C(C)(C)c3ccc(-c4cnc(C)nc4)cc32)cnc1Cl [Example 9, 1-(6-Chloro-5-methoxypyridin-3-yl)-3,3-dimethyl-6-(2-methylpyrimidin-5-yl)indolin-2-one]	154 nM
COc1cc(N2C(=O)C(C)(C)c3ccc(-c4cnc(C)nc4)cc32)cnc1C [Example 3, 1-(5-Methoxy-6-methylpyridin-3-yl)-3,3-dimethyl-6-(2-methylpyrimidin-5-yl)indolin-2-one]	242 nM
COc1cncc(N2C(=O)C3(CCC3)c3ccc(-c4cnc(C)nc4)cc32)c1 [Example 19, 1′-(5-Methoxypyridin-3-yl)-6′-(2-methylpyrimidin-5-yl)spiro[cyclobutane-1,3′-indolin]-2′-one]	785 nM
Cc1ncc(-c2ccc3c(c2)N(c2ccc4onc(C)c4c2)C(=O)C3(C)C)cn1 [Example 18, 3,3-Dimethyl-1-(3-methylbenzo[d]isoxazol-5-yl)-6-(2-methylpyrimidin-5-yl)indolin-2-one]	50.9 nM
Cc1ncc(-c2ccc3c(c2)N(c2cnc(OC4COC4)nc2)C(=O)C3(C)C)cn1 [Example 17, 3,3-Dimethyl-6-(2-methylpyrimidin-5-yl)-1-(2-(oxetan-3-yloxy)pyrimidin-5-yl)indolin-2-one]	823 nM
Cc1ncc(-c2ccc3c(c2)N(c2ccc(OCC(F)(F)F)nc2)C(=O)C3(C)C)cn1 [Example 16, 3,3-Dimethyl-6-(2-methylpyrimidin-5-yl)-1-(6-(2,2,2-trifluoroethoxy)pyridin-3-yl)indolin-2-one]	811 nM
COc1cc(N2C(=O)C(C)(C)c3ccc(-c4cnc(C)nc4)cc32)nc(OC)n1 [Example 4, 1-(2,6-Dimethoxypyrimidin-4-yl)-3,3-dimethyl-6-(2-methylpyrimidin-5-yl)indolin-2-one]	110 nM
COc1cnc(N2C(=O)C(C)(C)c3ccc(-c4cnc(C)nc4)cc32)cn1 [Example 11, 1-(5-Methoxypyrazin-2-yl)-3,3-dimethyl-6-(2-methylpyrimidin-5-yl)indolin-2-one]	272 nM
